# Marks after values point to notes of the source that are not given here.
# Assays:
# [1] = system: Candida albicans (ATCC no. 10231); experiment: MIC determination by broth microdilution (NCCLS), visual scoring; assay type: cell-based; conditions: for MIC80: Candida albicans, ATCC10231, read-out: MIC80 C. albicans
# Procedure: The antifungal activity of the 2,4,6-pyrimidinetrione analogs shown in Schemes 2-6 were evaluated in vitro using Candida albicans (ATCC no. 10231) and Candida glabrata (ATCC no 48435). All assays were done in accordance with NCCLS reference documents^29.
# (§1) Master stock concentrations of all tested compounds were prepared to ensure that the maximum final concentration of DMSO was 1% or less. Subsequent 2-fold serial dilutions were made using sterile water to a final concentration of 1280-5.00 μg/ml. A final 10-fold dilution of each drug was made by aliquotting 0.1 mL of each drug dilution into 0.9 mL of fungal suspension in RPMI 1640 media with 10 mM HEPES buffer added (see methodology below), giving final concentrations tested in the range of 128-0.5 μg/ml.
# (§2) Antifungal susceptibility studies and minimal inhibitory concentrations (MIC) values for Candida albicans (ATCC no. 10231) and Candida glabrata (ATCC no. 48435) were determined by the broth microdilution technique in accordance with NCCLS reference documents. Microdilution panels ranged from 0.5 to 128 μg/mL. All organisms were subcultured on Sabouraud agar and passaged to ensure purity and viability. The initiating inocula were prepared by picking 5-7 isolated colonies ˜1 mm in diameter from freshly prepared YM agar plates. Colonies were resuspended in sterile water, vortexed and the cell density was adjusted spectrophotometrically to the transmittance of a 0.5 McFarland standard at a wavelength of 530 nm, to yield a stock suspension of 1×10^6-5×10^6 cells/mL. The stock was allowed to hydrate for 30 minutes at room temperature. A working suspension was then made by diluting the stock 1:50 with RPMI 1640 media containing HEPES buffer. The working suspension was used for all assays. The plates were incubated at 35° C. for 48-72 hours in a humid atmosphere. Growth was scored visually. MIC values are defined as the lowest concentration of agent that prevents any discernible growth, ˜80% reduction of growth, as compared with drug-free control wells. All assays were run in parallel using either fluconazole or amphotericin B at the NCCLS recommended concentrations^29 as a drug control (Sigma-Aldrich).
# [2] = system: Candida glabrata (ATCC no. 48435); experiment: as above; assay type: cell-based; conditions: for MIC80: Nakaseomyces glabratus, ATCC48435, read-out: MIC80 C. glabrata
# Procedure: The antifungal activity of the 2,4,6-pyrimidinetrione analogs shown in Schemes 2-6 were evaluated in vitro using Candida albicans (ATCC no. 10231) and Candida glabrata (ATCC no 48435). All assays were done in accordance with NCCLS reference documents^29. The results of these screenings are summarized in Tables 1-9 as the minimal inhibitory concentrations that inhibited more than 80% fungal growth as compared to the positive controls in 1% DMSO and RPMI media. All MIC screens were done using a visual scoring method as opposed to spectroscopic methods of analysis, due to the physical properties of many of the compounds altering their absorbance spectra relative to the positive, negative and drug controls.
# as §1, with “None of the compounds tested over the course of these studies were soluble in water and DMSO was used to dilute each compound tested. Master” for “Master”
# as §2
# [3] = Table 5, Schiff Bases of 5-acylpyrimidinetriones
# [4] = Table 4, 5,5-Dialkylated Pyrimidinetriones
# [5] = Table 3, 5-Alkylated Pyrimidinetriones
# [6] = Table 1, 5-Acyl-2,4,6-pyrimidinetriones, >80% growth inhibition, RPMI, 1% DMSO
# [7] = Table 7, Phenylhydrazones of 5-Acylpyrimidinetriones
# [8] = Table 2, 5-Arylidene-2,4,6-pyrimidinetriones
# [9] = Table 8, N-Acylhydrazones of 5-Acylpyrimidinetriones
structure (smiles),measurement,setting,value
CC(=Nc1ccc(O)cc1)C1C(=O)N(C)C(=O)N(C)C1=O [BA80],MIC80 C. albicans,[1]; [3],"— (none of the 5-acyl-2,4,6-pyrimidinetriones, 5-alkylated pyrimidinetriones or the 5,5-dialkylated pyrimidinetriones showed antifungal activity through 125 μg/mL)"
same,MIC80 C. glabrata,[2]; [3],"— (none of the 5-acyl-2,4,6-pyrimidinetriones, 5-alkylated pyrimidinetriones or the 5,5-dialkylated pyrimidinetriones showed antifungal activity through 125 μg/mL)"
CN(C)c1ccc(CC2(Cc3ccc(N(C)C)cc3)C(=O)NC(=O)NC2=O)cc1 [BA71],MIC80 C. albicans,[1]; [4],"— (none of the 5-acyl-2,4,6-pyrimidinetriones, 5-alkylated pyrimidinetriones or the 5,5-dialkylated pyrimidinetriones showed antifungal activity through 125 μg/mL)"
same,MIC80 C. glabrata,[2]; [4],"— (none of the 5-acyl-2,4,6-pyrimidinetriones, 5-alkylated pyrimidinetriones or the 5,5-dialkylated pyrimidinetriones showed antifungal activity through 125 μg/mL)"
"C/C(=N\Nc1ccccc1)C1C(=O)NC(=O)NC1=O [BA85, 5-[(1E)-1-(2-phenylhydrazinylidene)ethyl]pyrimidine-2,4,6-trione]",MIC80,[1],2 µg/mL
same,MIC80,[2],2 µg/mL
CC(C)C1C(=O)NC(=O)N(c2ccccc2)C1=O (stereo not shown) [BA61],MIC80 C. albicans,[1]; [5],"— (none of the 5-acyl-2,4,6-pyrimidinetriones, 5-alkylated pyrimidinetriones or the 5,5-dialkylated pyrimidinetriones showed antifungal activity through 125 μg/mL)"
same,MIC80 C. glabrata,[2]; [5],"— (none of the 5-acyl-2,4,6-pyrimidinetriones, 5-alkylated pyrimidinetriones or the 5,5-dialkylated pyrimidinetriones showed antifungal activity through 125 μg/mL)"
"CN1C(=O)C(/C=N/Nc2ccc([N+](=O)[O-])cc2)C(=O)N(C)C1=O [BA23, 1,3-Dimethyl-5-{(E)-[2-(4-nitrophenyl)hydrazinylidene]methyl}pyrimidine-2,4,6-trione]",MIC80,[1],2 µg/mL
same,MIC80,[2],2 µg/mL
CCCCN1C(=O)NC(=O)C(C(=O)c2ccc(OC)cc2)C1=O (stereo not shown) [BA16],MIC80 C. albicans,[1]; [6],"— (none of the 5-acyl-2,4,6-pyrimidinetriones, 5-alkylated pyrimidinetriones or the 5,5-dialkylated pyrimidinetriones showed antifungal activity through 125 μg/mL)"
same,MIC80 C. glabrata,[2]; [6],"— (none of the 5-acyl-2,4,6-pyrimidinetriones, 5-alkylated pyrimidinetriones or the 5,5-dialkylated pyrimidinetriones showed antifungal activity through 125 μg/mL)"
O=C1NC(=O)N(c2ccccc2)C(=O)C1C(=NNc1ccc([N+](=O)[O-])cc1[N+](=O)[O-])c1ccccc1 (stereo not shown) [BA32],MIC80 C. albicans,[1]; [7],"— (none of the 5-acyl-2,4,6-pyrimidinetriones, 5-alkylated pyrimidinetriones or the 5,5-dialkylated pyrimidinetriones showed antifungal activity through 125 μg/mL)"
same,MIC80 C. glabrata,[2]; [7],"— (none of the 5-acyl-2,4,6-pyrimidinetriones, 5-alkylated pyrimidinetriones or the 5,5-dialkylated pyrimidinetriones showed antifungal activity through 125 μg/mL)"
COc1ccc(C(=O)C2C(=O)N(C)C(=O)N(C)C2=O)cc1 [BA15],MIC80 C. albicans,[1]; [6],"— (none of the 5-acyl-2,4,6-pyrimidinetriones, 5-alkylated pyrimidinetriones or the 5,5-dialkylated pyrimidinetriones showed antifungal activity through 125 μg/mL)"
same,MIC80 C. glabrata,[2]; [6],"— (none of the 5-acyl-2,4,6-pyrimidinetriones, 5-alkylated pyrimidinetriones or the 5,5-dialkylated pyrimidinetriones showed antifungal activity through 125 μg/mL)"
CN1C(=O)C(=Cc2ccc(N(C)C)cc2)C(=O)N(C)C1=O [BA54],MIC80 C. albicans,[1]; [8],"— (none of the 5-acyl-2,4,6-pyrimidinetriones, 5-alkylated pyrimidinetriones or the 5,5-dialkylated pyrimidinetriones showed antifungal activity through 125 μg/mL)"
same,MIC80 C. glabrata,[2]; [8],"— (none of the 5-acyl-2,4,6-pyrimidinetriones, 5-alkylated pyrimidinetriones or the 5,5-dialkylated pyrimidinetriones showed antifungal activity through 125 μg/mL)"
COC(=O)NN=CC1C(=O)N(C)C(=O)N(C)C1=O [BA76],MIC80 C. albicans,[1]; [9],"— (none of the 5-acyl-2,4,6-pyrimidinetriones, 5-alkylated pyrimidinetriones or the 5,5-dialkylated pyrimidinetriones showed antifungal activity through 125 μg/mL)"
same,MIC80 C. glabrata,[2]; [9],"— (none of the 5-acyl-2,4,6-pyrimidinetriones, 5-alkylated pyrimidinetriones or the 5,5-dialkylated pyrimidinetriones showed antifungal activity through 125 μg/mL)"
"O=C1NC(=O)C(/C(=N/Nc2ccc([N+](=O)[O-])cc2[N+](=O)[O-])c2ccccc2)C(=O)N1 [BA30, 5-[(Z)-[2-(2,4-Dinitrophenyl)hydrazinylidene](phenyl)methyl]pyrimidine-2,4,6-trione]",MIC80,[1],> 125 µg/mL
same,MIC80,[2],> 125 µg/mL
"O=C1NC(=O)C(/C=N/Nc2ccccc2)C(=O)N1 [BA74, 5-[(E)-(2-phenylhydrazinylidene)methyl]pyrimidine-2,4,6-trione]",MIC80,[1],4 µg/mL
same,MIC80,[2],2 µg/mL
O=C1NC(=O)C(C(=O)c2ccc(O)cc2)C(=O)N1 [BA10],MIC80 C. albicans,[1]; [6],"— (none of the 5-acyl-2,4,6-pyrimidinetriones, 5-alkylated pyrimidinetriones or the 5,5-dialkylated pyrimidinetriones showed antifungal activity through 125 μg/mL)"
same,MIC80 C. glabrata,[2]; [6],"— (none of the 5-acyl-2,4,6-pyrimidinetriones, 5-alkylated pyrimidinetriones or the 5,5-dialkylated pyrimidinetriones showed antifungal activity through 125 μg/mL)"
CN(C)c1ccc(C=C2C(=O)NC(=O)NC2=O)cc1 [BA53],MIC80 C. albicans,[1]; [8],62 µg/mL
same,MIC80 C. glabrata,[2]; [8],"— (none of the 5-acyl-2,4,6-pyrimidinetriones, 5-alkylated pyrimidinetriones or the 5,5-dialkylated pyrimidinetriones showed antifungal activity through 125 μg/mL)"
O=C1NC(=O)C(Cc2ccccc2)(Cc2ccccc2)C(=O)N1 [BA70],MIC80 C. albicans,[1]; [4],"— (none of the 5-acyl-2,4,6-pyrimidinetriones, 5-alkylated pyrimidinetriones or the 5,5-dialkylated pyrimidinetriones showed antifungal activity through 125 μg/mL)"
same,MIC80 C. glabrata,[2]; [4],"— (none of the 5-acyl-2,4,6-pyrimidinetriones, 5-alkylated pyrimidinetriones or the 5,5-dialkylated pyrimidinetriones showed antifungal activity through 125 μg/mL)"
"O=C1NC(=O)C(/C=N/Nc2ccc([N+](=O)[O-])cc2[N+](=O)[O-])C(=O)N1 [BA24, 5-{(E)-[2-(2,4-Dinitrophenyl)hydrazinylidene]methyl}pyrimidine-2,4,6-trione]",MIC80,[1],> 125 µg/mL
same,MIC80,[2],125 µg/mL
O=C1NC(=O)C(C=Nc2ccncc2)C(=O)N1 [BA83],MIC80 C. albicans,[1]; [3],"— (none of the 5-acyl-2,4,6-pyrimidinetriones, 5-alkylated pyrimidinetriones or the 5,5-dialkylated pyrimidinetriones showed antifungal activity through 125 μg/mL)"
same,MIC80 C. glabrata,[2]; [3],"— (none of the 5-acyl-2,4,6-pyrimidinetriones, 5-alkylated pyrimidinetriones or the 5,5-dialkylated pyrimidinetriones showed antifungal activity through 125 μg/mL)"
O=C1NC(=O)C(=Cc2cccc3ccccc23)C(=O)N1 [BA41],MIC80 C. albicans,[1]; [8],125 µg/mL
same,MIC80 C. glabrata,[2]; [8],"— (none of the 5-acyl-2,4,6-pyrimidinetriones, 5-alkylated pyrimidinetriones or the 5,5-dialkylated pyrimidinetriones showed antifungal activity through 125 μg/mL)"
COc1ccc(N=CC2C(=O)N(C)C(=O)N(C)C2=O)cc1 [BA98],MIC80 C. albicans,[1]; [3],"— (none of the 5-acyl-2,4,6-pyrimidinetriones, 5-alkylated pyrimidinetriones or the 5,5-dialkylated pyrimidinetriones showed antifungal activity through 125 μg/mL)"
"C/C(=N\N)C1C(=O)NC(=O)NC1=O [BA118, 5-[(1E)-1-hydrazinylideneethyl]pyrimidine-2,4,6-trione]",MIC80,[1],> 125 µg/mL
"CN1C(=O)C(/C=N/N)C(=O)N(C)C1=O [BA117, 5-[(E)-hydrazinylidenemethyl]-1,3-dimethylpyrimidine-2,4,6-trione]",MIC80,[1],125 µg/mL
Cc1ccc(S(=O)(=O)N/N=C/C2C(=O)NC(=O)NC2=O)cc1 [BA113],MIC80 C. albicans,"[1]; Table 9, value marked ** (footnote not given)",16** μg/mL
C/C(=N\NS(=O)(=O)c1ccc(C)cc1)C1C(=O)NC(=O)NC1=O [BA114],MIC80 C. albicans,"[1]; Table 9, Benzenesuifonohydrazones of 5-Acylpyrimidinetrione","— (none of the 5-acyl-2,4,6-pyrimidinetriones, 5-alkylated pyrimidinetriones or the 5,5-dialkylated pyrimidinetriones showed antifungal activity through 125 μg/mL)"
O=C1NC(=O)C(/C=N/c2ccc(-c3ccccc3)cc2)C(=O)N1 [BA105],MIC80 C. albicans,[1]; [3],"— (none of the 5-acyl-2,4,6-pyrimidinetriones, 5-alkylated pyrimidinetriones or the 5,5-dialkylated pyrimidinetriones showed antifungal activity through 125 μg/mL)"
"CN/N=C/C1C(=O)NC(=O)NC1=O [BA120, 5-[(E)-(2-methylhydrazinylidene)methyl]pyrimidine-2,4,6-trione]",MIC80,[1],> 125 µg/mL

# — patent US20160235752A1, “COMPOSITIONS, METHODS OF USE, AND METHODS OF TREATMENT” (THE UNIVERSITY OF NEW ORLEANS, priority 2013, published 2016)
